Results as given in paper PMC3362676 (Cellular Signalling, 2012).
Ends that are not written are not given here. Peptide text beside a SMILES is read from it.

Columns and labels:
kB2R = kB2R (Homo sapiens, UniProt P30411); details: HEK-kB2R
[1] = tested on: HEK cells stably expressing kB1R; details: HEK cells expressing only the kB1R; 10 μM peptide in PBS; 30 min, 37 °C; HPLC
[2] = ref [2], [9], [21], [24]; cited from earlier work
CPM = assay: HEK cells stably expressing CPM, in PBS; details: human, 37 °C, up to 30 min

Chain of kB2R (P30411 whole entry): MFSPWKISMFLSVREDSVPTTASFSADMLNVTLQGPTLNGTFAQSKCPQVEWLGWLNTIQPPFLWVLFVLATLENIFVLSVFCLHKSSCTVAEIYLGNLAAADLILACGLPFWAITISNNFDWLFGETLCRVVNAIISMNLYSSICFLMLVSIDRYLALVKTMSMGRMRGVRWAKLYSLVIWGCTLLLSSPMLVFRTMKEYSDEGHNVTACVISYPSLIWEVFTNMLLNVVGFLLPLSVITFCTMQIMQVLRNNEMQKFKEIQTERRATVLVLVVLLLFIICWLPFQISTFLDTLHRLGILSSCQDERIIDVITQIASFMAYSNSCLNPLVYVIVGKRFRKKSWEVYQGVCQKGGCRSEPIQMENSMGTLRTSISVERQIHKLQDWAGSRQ

cleaved bond (CPM) | Compound | lifetime in vivo [2] | other results
 | N=C(N)NCCC[C@H](NC(=O)[C@H](Cc1ccccc1)NC(=O)[C@@H]1CCCN1C(=O)[C@H](CO)NC(=O)[C@H](Cc1ccccc1)NC(=O)CNC(=O)[C@@H]1CCCN1C(=O)[C@@H]1CCCN1C(=O)[C@@H](N)CCCNC(=N)N)C(=O)O [BK, Bradykinin] (H-RPPGFSPFR-OH) |  | maximal ERK1/2 phosphorylation maintained from 40 – 60 min (kB2R; 1 μM BK, 40 – 60 min): 40%
 | NC(N)=NCCC[C@H](NC(=O)[C@H](Cc1ccccc1)NC(=O)[C@@H]1CCCN1C(=O)[C@H](CO)NC(=O)[C@H](Cc1ccccc1)NC(=O)CNC(=O)[C@@H]1CCCN1C(=O)[C@@H]1CCCN1C(=O)[C@@H](N)CCCN=C(N)N)C(=O)O [BK, Bradykinin] (H-RPPGFSPFR-OH) | lower than 30 seconds | hydrolysis of peptide [1]: no detectable hydrolysis
 | NCCCC[C@H](N)C(=O)N[C@@H](CCCN=C(N)N)C(=O)N1CCC[C@H]1C(=O)N1CCC[C@H]1C(=O)NCC(=O)N[C@@H](Cc1ccccc1)C(=O)N[C@@H](CO)C(=O)N1CCC[C@H]1C(=O)N[C@@H](Cc1ccccc1)C(=O)N[C@@H](CCCN=C(N)N)C(=O)O [KD, Kallidin] | lower than 30 seconds | maximal ERK1/2 activation still remaining at 40 min (kB2R; 1 μM KD, 40 min): 80%
Phe-Lys10, 30 min | KRPPGFSPFK |  | 
Phe-Lys9, 30 min | RPPGFSPFK |  | 
Phe-Arg9, 30 min | RPPGFSPFR |  | 
